According to patent publication US10377774B2 (JINAN UNIVERSITY, priority 2013, dated 2019):
Marks after values point to notes of the source that are not given here.

Experiments:
[1] = tested on: human non-small-cell lung cancer cell line A549; assay: MTT cell growth inhibition, A549; type: cell-based; conditions: A549, MTT assay, 72 h; read-out: IC50, growth of tumor cell line
[2] = tested on: human colon cancer cell line LOVO; assay: MTT cell growth inhibition, LOVO; type: cell-based; conditions: LOVO (FAPα positive), MTT assay, 72 h; read-out: IC50, growth of tumor cell line
[3] = tested on: human nasopharyngeal carcinoma cell line CNE-2; assay: MTT cell growth inhibition, CNE-2; type: cell-based; conditions: CNE-2, MTT assay, 72 h; read-out: IC50, growth of tumor cell line
Excerpt: (§3) Experimental method: Cell lines (human non-small-cell lung cancer cell line A549, human colon cancer cell line LOVO, human nasopharyngeal carcinoma cell line CNE-2, human liver cancer cell line HepG2, human cervical carcinoma cell line Hela, human breast cancer cell lines MCF-7 and MDA-MB-231, human gastric carcinoma cell line NCI-N87, human prostatic cancer cell lines PC-3 and DU145, human leukemia cell line K562, human melanoma cell line A375, human neuroblastoma cell line SH-SY5H, human promyelocytic leukemia cell line HL-60, 5-FU-resistant human hepatocellular carcinoma cell line BEL-7402/5-Fu, doxorubicin-resistant hepatocellular carcinoma cell line HepG2/ADM, doxorubicin-resistant human breast cancer cell lines MCF-7/ADR) at logarithmic phase were resuspended in RPMI 1640 medium (containing 10% fetal bovine serum, 100 U/mL penicillin-streptomycin). Then, 100 μL of cells (cell concentration was 5×10^5/mL) were seeded into 96 wells plate. After 24 h incubation at 37° C. with 5% CO2, tested compounds were added (the control group without compound) for an additional 72 h incubation. After that, 30 μL of MTT [3-(4,5-Dimethylthiazol-2-yl)-2,5-diphenyltetrazolium bromide] solution (5 mg/mL) was added into each well and incubated for another 4 h at 37° C. and then the formazan crystals were solubilized with 100 μL DMSO. Finally, absorbance of each well was determined at 570 nm by a microplate reader (Thermo).
(§4) The concentration required to inhibit cell growth by 50% (IC50) was calculated from survival curves.

[4] = tested on: human liver cancer cell line HepG2; assay: MTT cell growth inhibition, HepG2; type: cell-based; conditions: HepG2, MTT assay, 72 h; read-out: IC50, growth of tumor cell line
[5] = tested on: human cervical carcinoma cell line Hela; assay: MTT cell growth inhibition, Hela; type: cell-based; conditions: MTT assay, 72 h, read-out: IC50, growth of tumor cell line
Excerpt: as §3, §4

[6] = tested on: human breast cancer cell line MCF-7; assay: MTT cell growth inhibition, MCF-7; type: cell-based; conditions: MCF-7, MTT assay, 72 h; read-out: IC50, growth of tumor cell line
Excerpt: as §3, §4

[7] = tested on: human breast cancer cell line MDA-MB-231; assay: MTT cell growth inhibition, MDA-MB-231; type: cell-based; conditions: MDA-MB-231, MTT assay, 72 h; read-out: IC50, growth of tumor cell line
Excerpt: as §3, §4

[8] = tested on: human gastric carcinoma cell line NCI-N87; assay: MTT cell growth inhibition, NCI-N87; type: cell-based; conditions: NCI-N87, MTT assay, 72 h; read-out: IC50, growth of tumor cell line
Excerpt: as §3, §4

[9] = tested on: human prostatic cancer cell line PC-3; assay: MTT cell growth inhibition, PC-3; type: cell-based; conditions: PC-3, MTT assay, 72 h; read-out: IC50, growth of tumor cell line
Excerpt: as §3, §4

[10] = tested on: human prostatic cancer cell line DU145; assay: MTT cell growth inhibition, DU-145; type: cell-based; conditions: DU-145, MTT assay, 72 h; read-out: IC50, growth of tumor cell line
Excerpt: as §3, §4

[11] = tested on: human leukemia cell line K562; assay: MTT cell growth inhibition, K562; type: cell-based; conditions: K562, MTT assay, 72 h; read-out: IC50, growth of tumor cell line
Excerpt: as §3, §4

[12] = tested on: human melanoma cell line A375; assay: MTT cell growth inhibition, A375; type: cell-based; conditions: A375, MTT assay, 72 h; read-out: IC50, growth of tumor cell line
Excerpt: as §3, §4

[13] = tested on: human neuroblastoma cell line SH-SY5H; assay: MTT cell growth inhibition, SH-SY5H; type: cell-based; conditions: MTT assay, 72 h, read-out: IC50, growth of tumor cell line
Excerpt: as §3, §4

[14] = tested on: human promyelocytic leukemia cell line HL-60; assay: MTT cell growth inhibition, HL-60; type: cell-based; conditions: HL-60, MTT assay, 72 h; read-out: IC50, growth of tumor cell line
[15] = tested on: 5-FU-resistant human hepatocellular carcinoma cell line BEL-7402/5-Fu; assay: MTT cell growth inhibition, BEL-7402/5-Fu; type: cell-based; conditions: MTT assay, 72 h, read-out: IC50, growth of tumor cell line
Excerpt: as §3, §4

[16] = tested on: doxorubicin-resistant hepatocellular carcinoma cell line HepG2/ADM; assay: MTT cell growth inhibition, HepG2/ADM; type: cell-based, human; conditions: MTT assay, 72 h, read-out: IC50, growth of tumor cell line
[17] = tested on: Kunming mice; assay: Acute toxicity test; type: in vivo; conditions: injected intraperitoneally
Method: Experimental method: Kunming mice were purchased from Guangdong Medical Experimental Animal Center, weighing 18-22 g, then randomly divided into several groups with 10 mice in each group. Different concentrations of VLB and vinca alkaloid dipeptide derivatives were injected intraperitoneally. Finally, the median lethal dose (LD50) was calculated according to the surviving animals.
LD50 was measured using the following formula:
LD50 (mg/kg)=The median lethal dose/body weight

[18] = tested on: MDA-MB-231 xenografts; assay: MDA-MB-231 xenografts in nude mice; type: in vivo, BALB/nu/nu mice; conditions: MDA-MB-231 xenograft nude mice; for Anti-tumor rate (%) / Body weight (g) Post-dose / Tumor weight: 1 mg/kg i.p. every two days, 8 administrations; for Body weight (g) Pre-dose: before dosing
Method: (§1) Experimental method: The MDA-MB-231 cells at logarithmic phase were digested and washed twice with PBS. Then, 100 μL cells (1×10^7) were inoculated subcutaneously on the backs of female BALB/nu/nu mice. After tumors grew to 70˜100 mm^3, the mice were divided randomly into saline group (control group), vinca alkaloids groups (VLB, CCRB, CCFN, CCXJ) and vinca alkaloid derivatives groups (JJ-CCJ, BX-CCJ, JJ-CCRB, BX-CCRB, JJ-CCFN, BX-CCFN, JJ-CCXJ and BX-CCXJ), with six mice per group. 1 mg/kg drugs were injected intraperitoneally every two days, meanwhile body weight and tumor sizes were measured. Experiment was ended after 8 times of drug administration, then tumor and organs were stripped. Tumor volumes were measured using the following formula: V=½(ab^2), whereas a refers to the longest diameter and b is the shortest diameter.

[19] = tested on: HepG2 xenografts; assay: HepG2 xenografts in nude mice; type: in vivo; conditions: HepG2 xenograft nude mice; for Anti-tumor rate (%) / Body weight (g) Post-dose / Tumor weight: 1 mg/kg; for Body weight (g) Pre-dose: before dosing
Method: as §1
(§2) Tumor xenograft models of HepG2, LOVO, K562 and HL-60 cell lines were performed as the method described above.

[20] = tested on: LOVO xenografts; assay: LOVO xenografts in nude mice; type: in vivo; conditions: LOVO xenograft nude mice; for Anti-tumor rate (%) / Body weight (g) Post-dose / Tumor weight: 1 mg/kg; for Body weight (g) Pre-dose: before dosing
Method: as §1, §2

[21] = tested on: K562 xenografts; assay: K562 xenografts in nude mice; type: in vivo; conditions: K562 xenograft nude mice; for Anti-tumor rate (%) / Body weight (g) Post-dose / Tumor weight: 1 mg/kg; for Body weight (g) Pre-dose: before dosing
Method: as §1, §2

[22] = tested on: HL-60 xenografts; assay: HL-60 xenografts in nude mice; type: in vivo; conditions: HL-60 xenograft nude mice; for Anti-tumor rate (%) / Body weight (g) Post-dose / Tumor weight: 1 mg/kg; for Body weight (g) Pre-dose: before dosing
Method: as §1, §2

[23] = tested on: human normal liver cells LO2; assay: MTT cytotoxicity on normal cells, LO2; conditions: read-out: IC50, cytotoxicity on normal cell line; LO2, MTT assay
Method: (§5) Then, 100 μL of cells (cell concentration was 5×10^5/mL) were seeded into 96 wells plate. After 24 h incubation at 37° C. with 5% CO2, tested compounds were added (the control group without compound) for an additional 72 h incubation. After that, 30 μL of MTT [3-(4,5-Dimethylthiazol-2-yl)-2,5-diphenyltetrazolium bromide] solution (5 mg/mL) was added into each well and incubated for another 4 h at 37° C. and then the formazan crystals were solubilized with 100 μL DMSO. Finally, absorbance of each well was determined at 570 nm by a microplate reader (Thermo).
(§6) The standard curve was drew with compound concentrations as the abscissa and cell growth inhibition rates as the ordinate. The concentration required to inhibit cell growth by 50% (IC50) was calculated from survival curves.
(§7) Experimental method: In vitro cytotoxicities of vinca alkaloids, hydrazinolyzed vinca alkaloids and vinca alkaloid dipeptide derivatives on human normal liver cells LO2 and human umbilical vein endothelial cells HUVEC were detected according to the method of Example 2.

[24] = tested on: human umbilical vein endothelial cells HUVEC; assay: MTT cytotoxicity on normal cells, HUVEC; conditions: read-out: IC50, cytotoxicity on normal cell line; HUVEC, MTT assay
Method: as §5, §6, §7

[25] = tested on: doxorubicin-resistant human breast cancer cell lines MCF-7/ADR; assay: MTT cell growth inhibition, MCF-7/ADR; type: cell-based; conditions: MTT assay, 72 h, read-out: IC50, growth of tumor cell line
Excerpt: as §3, §4

Row | SMILES | IC50 [1] [nM] | IC50 [2] [nM] | IC50 [3] [nM] | IC50 [4] [nM] | IC50 [5] [nM] | IC50 [6] [nM] | IC50 [7] [nM] | IC50 [8] [nM] | IC50 [9] [nM] | IC50 [10] [nM] | IC50 [11] [nM] | IC50 [12] [nM] | IC50 [13] [nM] | IC50 [14] [nM] | IC50 [15] [nM] | IC50 [16] [nM] | LD50 (median lethal dose) [17] [mg/kg] | Anti-tumor rate (%) [18] | Body weight (g) Post-dose [18] [g] | Tumor weight [18] [g] | further results
1 | CCC1=CC2CN(C1)Cc1c([nH]c3ccccc13)C(C(=O)OC)(c1cc3c(cc1OC)N(C)C1C(O)(C(=O)NNC(=O)C4CCCN4C(=O)CNC(=O)OCc4ccccc4)C(O)C4(CC)C=CCN5CCC31C54)C2 (centres unmarked) [BX-CCRB, Z-GP-NHNH-Vinorelbine] | 115 ± 5.23 | 123 ± 11.4 | 210 ± 5.78 | 167 ± 4.37 | 182 ± 2.36 | 238 ± 8.37 | 181 ± 8.1 | 244 ± 9.33 | 269.8 ± 2.03 | 219 ± 6.29 | 109 ± 4.66 | 120 ± 14.5 | 166 ± 15.6 | 208 ± 18.4 | 325 ± 11.7 | 437 ± 14.4 | 12 | 85.83** % | 20.1 ± 0.9 | 0.37 ± 0.07 | Body weight (g) Pre-dose [18]: 19.1 ± 1.7 g; Anti-tumor rate (%) [19]: 85.49** %; Body weight (g) Post-dose [19]: 22.6 ± 0.5 g; Tumor weight [19]: 0.37 ± 0.09 g; Body weight (g) Pre-dose [19]: 22.2 ± 1.5 g; Anti-tumor rate (%) [20]: 80.14** %; Body weight (g) Post-dose [20]: 24.1 ± 2.3 g; Tumor weight [20]: 0.57 ± 0.23 g; Body weight (g) Pre-dose [20]: 23.6 ± 1.2 g; Anti-tumor rate (%) [21]: 72.62** %; Body weight (g) Post-dose [21]: 23.4 ± 1.2 g; Tumor weight [21]: 0.46 ± 0.29 g; Body weight (g) Pre-dose [21]: 22.1 ± 0.5 g; Anti-tumor rate (%) [22]: 74.52** %; Body weight (g) Post-dose [22]: 19.2 ± 1.3 g; Tumor weight [22]: 0.53 ± 0.28 g; Body weight (g) Pre-dose [22]: 19.0 ± 1.2 g; IC50 [23]: 183 ± 5.51 nM; IC50 [24]: 167 ± 8.87 nM
2 | CCC1(O)CC2CN(CCc3c([nH]c4ccccc34)C(C(=O)OC)(c3cc4c(cc3OC)N(C=O)C3C(O)(C(=O)NNC(=O)C5CCCN5C(=O)CNC(=O)OCc5ccccc5)C(O)C5(CC)C=CCN6CCC43C65)C2)C1 (centres unmarked) [BX-CCXJ, Z-GP-NHNH-Vincristine] | 47.7 ± 2.64 | 24.9 ± 1.78 | 40.1 ± 2.09 | 33.4 ± 2.01 | 55.3 ± 1.9 | 73.2 ± 3.66 | 57.3 ± 3.36 | 43.2 ± 3.53 | 88.9 ± 6.84 | 76.9 ± 4.55 | 44.9 ± 3.28 | 54.8 ± 8.41 | 61.7 ± 6.14 | 72.8 ± 4.59 | 326 ± 13.3 | 135 ± 5.54 | 10 | 91.18** % | 21.9 ± 2.9 | 0.23 ± 0.09 | IC50 [25]: 169 ± 5.67 nM; Body weight (g) Pre-dose [18]: 19.5 ± 1.4 g; Anti-tumor rate (%) [19]: 88.63** %; Body weight (g) Post-dose [19]: 21.9 ± 2.1 g; Tumor weight [19]: 0.29 ± 0.13 g; Body weight (g) Pre-dose [19]: 22.2 ± 1.2 g; Anti-tumor rate (%) [20]: 79.45** %; Body weight (g) Post-dose [20]: 24.2 ± 1.7 g; Tumor weight [20]: 0.59 ± 0.33 g; Body weight (g) Pre-dose [20]: 23.8 ± 1.0 g; Anti-tumor rate (%) [21]: 75.00** %; Body weight (g) Post-dose [21]: 22.5 ± 1.1 g; Tumor weight [21]: 0.42 ± 0.14 g; Body weight (g) Pre-dose [21]: 21.2 ± 0.9 g; Anti-tumor rate (%) [22]: 72.12** %; Body weight (g) Post-dose [22]: 19.7 ± 0.9 g; Tumor weight [22]: 0.58 ± 0.17 g; Body weight (g) Pre-dose [22]: 19.3 ± 1.1 g; IC50 [23]: 101 ± 9.02 nM; IC50 [24]: 176 ± 5.51 nM
3 | CCC12C=CCN3CCC4(c5cc(C6(C(=O)OC)CC7CC(C(C)(F)F)CN(Cc8c6[nH]c6ccccc86)C7)c(OC)cc5N(C)C4C(O)(C(=O)NNC(=O)C4CCCN4C(=O)CNC(=O)OCc4ccccc4)C1O)C32 (centres unmarked) [BX-CCFN, Z-GP-NHNH-Vinflunine] | 335 ± 7.31 | 320 ± 8.51 | 309 ± 5.78 | 299 ± 7.64 | 430 ± 10.1 | 606 ± 11.5 | 614 ± 9.29 | 430 ± 10.4 | 317 ± 31.3 | 289 ± 28.8 | 229 ± 6.6 | 528 ± 34.8 | 459 ± 13.5 | 726 ± 98.2 | 390 ± 15.7 | 604 ± 17.9 | 15 | 88.13** % | 20.6 ± 1.6 | 0.31 ± 0.11 | IC50 [25]: 908 ± 20.2 nM; Body weight (g) Pre-dose [18]: 20.2 ± 0.7 g; Anti-tumor rate (%) [19]: 88.24** %; Body weight (g) Post-dose [19]: 22.1 ± 1.2 g; Tumor weight [19]: 0.30 ± 0.17 g; Body weight (g) Pre-dose [19]: 21.9 ± 1.3 g; Anti-tumor rate (%) [20]: 83.63** %; Body weight (g) Post-dose [20]: 24.5 ± 1.5 g; Tumor weight [20]: 0.47 ± 0.31 g; Body weight (g) Pre-dose [20]: 23.6 ± 1.3 g; Anti-tumor rate (%) [21]: 66.08** %; Body weight (g) Post-dose [21]: 23.0 ± 0.8 g; Tumor weight [21]: 0.57 ± 0.13 g; Body weight (g) Pre-dose [21]: 22.9 ± 1.3 g; Anti-tumor rate (%) [22]: 70.68** %; Body weight (g) Post-dose [22]: 18.6 ± 1.4 g; Tumor weight [22]: 0.61 ± 0.35 g; Body weight (g) Pre-dose [22]: 18.7 ± 1.4 g; IC50 [23]: 301 ± 14.3 nM; IC50 [24]: 270 ± 7.7 nM
